Data reported in patent US9850227B2 (YUHAN CORPORATION, priority 2011, dated 2017).
Counter-ions that a name gives are not always drawn.

Target: T1, human 5-HT4(a) (Homo sapiens, UniProt Q13639)
T1 construct: host or cells: GeneBIAzer HTR4-CRE-bla CHO-K1 cells
Experiment: Evaluation of agonistic activity in CHO-K1 cells expressing human 5-HT4(a) (GeneBIAzer HTR4-CRE-bla CHO-K1 cells, beta-lactamase fluorescence ratio, EC50 from 8 concentrations)
Format: cell-based
Method: Evaluation of Agonistic Activity in CHO-K1 Cells Expressing Human 5-HT4(a)
As CHO-K1 cells stably expressing human 5-HT4(a), we used the GeneBIAzer HTR4-CRE-bla CHO-K1 cells (Invitrogen Corp.). The cells were cultured, under the condition of 37° C. and 5% CO2, in a DMEM supplemented with 10% fetal bovine serum (FBS), 25 mM HEPES (pH7.4), 600 μg/ml hygromycin B, 0.1 mM non-essential amino acids, 100 unit/ml penicillin and 100 μg/ml streptomycin. Subcultures were performed three times per one week, each being at less than 80% confluence. At the previous day before treating test compounds, the cells were collected using 0.5% trypsin/EDTA and then diluted with a DMEM supplemented with 1% FBS, 25 mM HEPES, and 0.1 mM non-essential amino acids into 3.125×10^5 cells/ml. 32 μl of the diluted cells were added into 384-well plate (10^4 cells per well) and then incubated overnight. After the overnight culture, 8 μl of the medium having 1% of DMSO was added into the cell-free control well and the non-stimulating control well, respectively. 8 μl of the respective test compound dilutions (which had been prepared by diluting by 100-times with the medium as mentioned in the above) having 1% of DMSO were added to the respective remaining wells. After being cultured in the incubator for 5 hours, the wells of the 384-plate were treated with the substrate solution (8 μl per well) prepared according to the vendor's instruction (i.e., Invitrogen's instruction), and then incubated in the dark room for additional two hours. Agonistic activities on 5-HT4 receptor were evaluated, on the basis of fluorescence values of the cleavage-products by beta-lactamase. After exciting to 410 nm of wavelength using a fluorescence detector (Genios Pro), we measured the fluorescence values at two emission wavelengths (first wavelength: 465 nm, second wavelength: 535 nm). Data were analyzed on the basis of the ratio of fluorescence intensities of each well at the respective wavelengths. Each EC50 value was calculated by non-linear regression analysis using the “GraphPad Prism” program, based on the activities according to 8-different concentrations of the test compounds.

T1 sequence (Q13639 1-387 isoform Q13639-2): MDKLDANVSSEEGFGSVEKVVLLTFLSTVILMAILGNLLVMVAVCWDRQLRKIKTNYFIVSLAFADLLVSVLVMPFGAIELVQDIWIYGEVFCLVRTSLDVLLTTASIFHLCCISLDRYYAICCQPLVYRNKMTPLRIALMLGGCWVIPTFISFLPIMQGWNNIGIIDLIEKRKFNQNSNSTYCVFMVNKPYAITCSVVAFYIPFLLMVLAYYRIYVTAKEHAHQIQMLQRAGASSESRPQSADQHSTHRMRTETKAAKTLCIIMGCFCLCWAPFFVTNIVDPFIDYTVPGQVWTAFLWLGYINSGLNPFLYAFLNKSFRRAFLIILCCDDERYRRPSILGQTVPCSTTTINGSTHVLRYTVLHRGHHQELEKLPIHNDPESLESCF

For `CCCc1cc(N2CCCCC2CCO)nc(Nc2cccc(OC)c2)n1` (stereo not shown) [Example 138, 2-{1-[2-(3-methoxyphenylamino)-6-propylpyrimidin-4-yl]piperidin-2-yl}ethanol], which EC50 is on record?
Its EC50 is 0.46 nM.

For `CCCc1cc(N2CCCCC2CCO)nc(Nc2ccc(C)c(Cl)c2)n1` (stereo not shown) [Example 140, 2-{1-[2-(3-chloro-4-methylphenylamino}-6-propylpyrimidin-4-yl]piperidin-2-yl}ethanol], which EC50 is on record?
Its EC50 is 0.28 nM.

Which EC50 does the source give for `CCCc1cc(N2CCCCC2CCO)nc(Nc2cccc([N+](=O)[O-])c2)n1` (stereo not shown) [Example 141, 2-{1-[2-(3-nitrophenylamino)-6-propylpyrimidin-4-yl]piperidin-2-yl}ethanol] here?
Its EC50 is 0.15 nM.

How did the EC50 turn out when `CCCc1cc(N2CCCCC2CCO)nc(Nc2ccc(F)c([N+](=O)[O-])c2)n1` (stereo not shown) [Example 142, 2-{1-[2-(4-fluoro-3-nitrophenylamino)-6-propylpyrimidin-4-yl]piperidin-2-yl}ethanol] was run?
The EC50 was 0.3 nM.

`CCCc1cc(N2CCCCC2CCO)nc(Nc2ccc3c(C)cc(=O)oc3c2)n1` (stereo not shown) [Example 146, 7-{4-[2-(2-hydroxyethyl)piperidin-1-yl]-6-propylpyrimidin-2-ylamino}-4-methyl-2H-chromen-2-one] was tested. Which EC50 did it give?
Its EC50 is 0.27 nM.

`CCCc1cc(N2CCCCC2CCO)nc(Nc2cccc(C(F)(F)F)c2)n1` (stereo not shown) [Example 147, 2-{1-[6-propyl-2-(3-trifluoromethylphenylamino)pyrimidin-4-yl]piperidin-2-yl}ethanol] was tested. Which EC50 did it give?
Its EC50 is 0.31 nM.

For `CCCc1cc(N2CCC[C@H](N)C2)nc(Nc2ccc(C)c(C#N)c2)n1` [Example 150, (S)-5-[4-(3-aminopiperidin-1-yl)-6-propylpyrimidin-2-ylamino]-2-methylbenzonitrile dihydrochloride], which EC50 is on record?
The EC50 was 0.07 nM.

For `CCCc1cc(N2CCC[C@H](N)C2)nc(Nc2cccc([N+](=O)[O-])c2)n1` [Example 151, (S)-4-(3-aminopiperidin-1-yl)-N-(3-nitrophenyl)-6-propylpyrimidin-2-amine dihydrochloride], which EC50 is on record?
Its EC50 is 0.361 nM.

For `CCCc1cc(N2CCC[C@@H](N)C2)nc(Nc2ccc(C)c(C#N)c2)n1` [Example 153, (R)-5-[4-(3-aminopiperidin-1-yl)-6-propylpyrimidin-2-ylamino]-2-methylbenzonitrile], which EC50 is on record?
Its EC50 is 0.02 nM.

How did the EC50 turn out when `CCCCN[C@H]1CCCN(c2cc(CCC)nc(Nc3ccc(C)c(C#N)c3)n2)C1` [Example 154, (S)-5-{4-[3-(butylamino)piperidin-1-yl]-6-propylpyrimidin-2-ylamino}-2-methylbenzonitrile] was run?
The EC50 was 0.041 nM.

With `CCCCCN[C@H]1CCCN(c2cc(CCC)nc(Nc3ccc(C)c(C#N)c3)n2)C1` [Example 155, (S)-5-{4-[3-(pentylamino)piperidin-1-yl]-6-propylpyrimidin-2-ylamino}-2-methylbenzonitrile] as the molecule, how does the EC50 read?
Its EC50 is 0.093 nM.

How did the EC50 turn out when `CCCc1cc(N2CCC[C@H](NCC(C)C)C2)nc(Nc2ccc(C)c(C#N)c2)n1` [Example 156, (S)-5-{4-[3-(isobutylamino)piperidin-1-yl]-6-propylpyrimidin-2-ylamino}-2-methylbenzonitrile] was run?
The EC50 was 0.066 nM.

With `CCCc1cc(N2CCC[C@H](NCCC(C)C)C2)nc(Nc2ccc(C)c(C#N)c2)n1` [Example 157, (S)-5-{4-[3-(isopentylamino)piperidin-1-yl]-6-propylpyrimidin-2-ylamino}-2-methylbenzonitrile] as the molecule, how does the EC50 read?
The EC50 was 0.088 nM.

`CCCc1cc(N2CCC[C@H](NCC(C)(C)C)C2)nc(Nc2ccc(C)c(C#N)c2)n1` [Example 158, (S)-2-methyl-5-{4-[3-(neopentylamino)piperidin-1-yl]-6-propylpyrimidin-2-ylamino}benzonitrile] was tested. Which EC50 did it give?
The EC50 was 0.054 nM.

For `CCCc1cc(N2CCC[C@H](NCc3ccc[nH]3)C2)nc(Nc2ccc(C)c(C#N)c2)n1` [Example 159, (S)-5-(4-{3-[(1H-pyrrol-2-yl)methylamino]piperidin-1-yl}-6-propylpyrimidin-2-ylamino)-2-methylbenzonitrile], which EC50 is on record?
Its EC50 is 0.046 nM.

With `CCCc1cc(N2CCC[C@H](NCc3cccs3)C2)nc(Nc2ccc(C)c(C#N)c2)n1` [Example 160, (S)-2-methyl-5-(4-propyl-6-{3-[(thiophen-2-ylmethyl)amino]piperidin-1-yl}pyrimidin-2-ylamino)benzonitrile] as the molecule, how does the EC50 read?
Its EC50 is 0.125 nM.

How did the EC50 turn out when `CCCc1cc(N2CCC[C@H](NCc3cc(C)c(C)o3)C2)nc(Nc2ccc(C)c(C#N)c2)n1` [Example 161, (S)-5-(4-{3-[(4,5-dimethylfuran-2-ylmethyl)amino]piperidin-1-yl}-6-propylpyrimidin-2-ylamino)-2-methylbenzonitrile] was run?
Its EC50 is 0.148 nM.

With `CCCc1cc(N2CCC[C@H](NCCCSC)C2)nc(Nc2ccc(C)c(C#N)c2)n1` [Example 162, (S)-2-methyl-5-{4-[3-(3-methylthiopropylamino)piperidin-1-yl]-6-propylpyrimidin-2-ylamino}benzonitrile] as the molecule, how does the EC50 read?
Its EC50 is 0.043 nM.

How did the EC50 turn out when `CCCc1cc(N2CCC[C@H](NCC3CC3)C2)nc(Nc2ccc(C)c(C#N)c2)n1` [Example 163, (S)-5-{4-[3-(cyclopropylmethylamino)piperidin-1-yl]-6-propylpyrimidin-2-ylamino}-2-methylbenzonitrile] was run?
The EC50 was 0.088 nM.

For `CCCc1cc(N2CCC[C@H](NCc3ccc(O)cc3)C2)nc(Nc2ccc(C)c(C#N)c2)n1` [Example 164, (S)-5-{4-[3-(4-hydroxybenzylamino)piperidin-1-yl]-6-propylpyrimidin-2-ylamino}-2-methylbenzonitrile], which EC50 is on record?
Its EC50 is 0.075 nM.

For `CCCc1cc(N2CCC[C@H](N(CC)CC)C2)nc(Nc2ccc(C)c(C#N)c2)n1` [Example 165, (S)-5-[4-(3-diethylaminopiperidin-1-yl)-6-propylpyrimidin-2-ylamino]-2-methylbenzonitrile], which EC50 is on record?
Its EC50 is 0.188 nM.

`CCCc1cc(N2CCCCC2CCO)nc(Nc2ccc(C)c([N+](=O)[O-])c2)n1` (stereo not shown) [Example 174, 2-{1-[2-(4-methyl-3-nitrophenylamino)-6-propylpyrimidin-4-yl]piperidin-2-yl}ethanol] was tested. Which EC50 did it give?
Its EC50 is 0.039 nM.

How did the EC50 turn out when `CCCc1cc(N2CCCCC2CCO)nc(Nc2ccc(N)c(C(F)(F)F)c2)n1` (stereo not shown) [Example 175, 2-{1-[2-(4-amino-3-trifluoromethylphenylamino)-6-propylpyrimidin-4-yl]piperidin-2-yl}ethanol] was run?
Its EC50 is 0.035 nM.

Which EC50 does the source give for `CCCc1cc(N2CCCCC2CCO)nc(Nc2ccc(N)c([N+](=O)[O-])c2)n1` (stereo not shown) [Example 176, 2-{1-[2-(4-amino-3-nitrophenylamino)-6-propylpyrimidin-4-yl]piperidin-2-yl}ethanol] here?
Its EC50 is 0.018 nM.

Which EC50 does the source give for `CCCc1cc(N2CCCCC2CCO)nc(Nc2ccc(C)c(C#N)c2)n1` (stereo not shown) [Example 177, 5-{4-[2-(2-hydroxyethyl)piperidin-1-yl]-6-propylpyrimidin-2-ylamino}-2-methylbenzonitrile] here?
Its EC50 is 0.049 nM.

For `CCCc1cc(N2CCCCC2CCO)nc(Nc2ccc(F)c(C#N)c2)n1` (stereo not shown) [Example 178, 2-fluoro-5-{4-[2-(2-hydroxyethyl)piperidin-1-yl]-6-propylpyrimidin-2-ylamino}benzonitrile], which EC50 is on record?
Its EC50 is 0.082 nM.

Which EC50 does the source give for `CCCc1cc(N2CCCCC2CCO)nc(Nc2ccc(N)c(C#N)c2)n1` (stereo not shown) [Example 179, 2-amino-5-{4-[2-(2-hydroxyethyl)piperidin-1-yl]-6-propylpyrimidin-2-ylamino}benzonitrile] here?
Its EC50 is 0.027 nM.

With `CCCc1cc(N2CCCCC2CCO)nc(Nc2ccc(C)c(N)c2)n1` (stereo not shown) [Example 180, 2-{1-[2-(3-amino-4-methylphenylamino)-6-propylpyrimidin-4-yl]piperidin-2-yl}ethanol] as the molecule, how does the EC50 read?
Its EC50 is 0.153 nM.

With `CCCc1cc(N2CCCCC2CCO)nc(Nc2ccc(F)c(N)c2)n1` (stereo not shown) [Example 181, 2-{1-[2-(3-amino-4-fluorophenylamino)-6-propylpyrimidin-4-yl]piperidin-2-yl}ethanol] as the molecule, how does the EC50 read?
Its EC50 is 0.025 nM.

With `CCCc1cc(N2CCCCC2CCO)nc(Nc2ccc(Cl)c(N)c2)n1` (stereo not shown) [Example 182, 2-{1-[2-(3-amino-4-chlorophenylamino)-6-propylpyrimidin-4-yl]piperidin-2-yl}ethanol] as the molecule, how does the EC50 read?
The EC50 was 0.022 nM.

With `CCCc1cc(N2CCCC3CCCCC32)nc(Nc2cccc(C#N)c2)n1` (stereo not shown) [Example 187, 3-[4-(octahydroquinolin-1(2H)-yl)-6-propylpyrimidin-2-ylamino]benzonitrile] as the molecule, how does the EC50 read?
The EC50 was 0.24 nM.

`CCCc1cc(N2CCCC3CCCCC32)nc(Nc2cccc([N+](=O)[O-])c2)n1` (stereo not shown) [Example 188, N-(3-nitrophenyl)-4-(octahydroquinolin-1(2H)-yl)-6-propylpyrimidin-2-amine] was tested. Which EC50 did it give?
Its EC50 is 0.43 nM.

With `CCCc1cc(N2CCCC3CCCCC32)nc(Nc2ccc(F)c([N+](=O)[O-])c2)n1` (stereo not shown) [Example 189, N-(4-fluoro-3-nitrophenyl)-4-(octahydroquinolin-1(2H)-yl)-6-propylpyrimidin-2-amine] as the molecule, how does the EC50 read?
The EC50 was 0.32 nM.

With `CCCc1cc(N2CCCC3CCCCC32)nc(Nc2ccc(Cl)c([N+](=O)[O-])c2)n1` (stereo not shown) [Example 190, N-(4-chloro-3-nitrophenyl)-4-(octahydroquinolin-1(2H)-yl)-6-propylpyrimidin-2-amine] as the molecule, how does the EC50 read?
The EC50 was 0.46 nM.
